Data: ChEMBL document CHEMBL1148116, “Thorectandrols C, D, and E, new sesterterpenes from the marine sponge Thorectandra sp” (J Nat Prod, 2002)
Values after ≈ are worked out from the molar mass of the structure shown. Active and inactive are the calls of the source. No cut-off for these calls is given here.

How the values were obtained:
Format in all cases: functional, cell-based
IGROV-1 [1] = assay: Cytotoxicity against human IGROV1 cells
[2] = Cytotoxicity against human 786-O cells; details: 786-0
KM12 [3] = assay: Cytotoxicity against human KM12 cells
Malme-3M [4] = assay: Cytotoxicity against human MALME-3M cells
NCI-H460 [5] = assay: Cytotoxicity against human H460 cells
MCF7 [6] = assay: Cytotoxicity against human MCF7 cells
LOX IMVI [7] = assay: Cytotoxicity against human LOXIMVI cells
MOLT-4 [8] = assay: Cytotoxicity against human MOLT4 cells
SNB-19 [9] = assay: Cytotoxicity against human SNB19 cells
A549 [10] = assay: Cytotoxicity against human A549 cells
COLO 205 [11] = assay: Cytotoxicity against human COLO205 cells
OVCAR-3 [12] = assay: Cytotoxicity against human OVCAR-3 cells
LOX IMVI [13] = assay: Cytotoxicity against human LOXIMVI cells at 100 ug/mL
KM12 [14] = assay: Cytotoxicity against human KM12 cells at 100 ug/mL
NCI-H460 [15] = assay: Cytotoxicity against human H460 cells at 100 ug/mL
SNB-19 [16] = assay: Cytotoxicity against human SNB19 cells at 100 ug/mL
MCF7 [17] = assay: Cytotoxicity against human MCF7 cells at 100 ug/mL
A549 [18] = assay: Cytotoxicity against human A549 cells at 100 ug/mL
COLO 205 [19] = assay: Cytotoxicity against human COLO205 cells at 100 ug/mL
OVCAR-3 [20] = assay: Cytotoxicity against human OVCAR-3 cells at 100 ug/mL
MOLT-4 [21] = assay: Cytotoxicity against human MOLT4 cells at 100 ug/mL
786-0 = assay: Cytotoxicity against human 786-O cells at 100 ug/mL
Malme-3M [22] = assay: Cytotoxicity against human MALME-3M cells at 100 ug/mL
IGROV-1 [23] = assay: Cytotoxicity against human IGROV1 cells at 100 ug/mL
[24] = Homo sapiens, MCF7, read-out: IC50

Row | SMILES | IC50 (IGROV-1 [1]) [µg/mL] | IC50 [2] [µg/mL] | IC50 (KM12 [3]) [µg/mL] | IC50 (Malme-3M [4]) [µg/mL] | IC50 (NCI-H460 [5]) [µg/mL] | IC50 (MCF7 [6]; [24]) [µg/mL] | IC50 (LOX IMVI [7]) [µg/mL] | IC50 (MOLT-4 [8]) [µg/mL] | IC50 (SNB-19 [9]) [µg/mL] | IC50 (A549 [10]) [µg/mL] | IC50 (COLO 205 [11]) [µg/mL] | IC50 (OVCAR-3 [12]) [µg/mL] | Activity (LOX IMVI [13]) | Activity (KM12 [14]) | Activity (NCI-H460 [15]) | Activity (SNB-19 [16]) | Activity (MCF7 [17]) | Activity (A549 [18]) | Activity (COLO 205 [19]) | Activity (OVCAR-3 [20]) | further results
1 | C=C1CCC[C@H]2[C@](C)(CC/C(C)=C/C[C@H]3OC(=O)C=C3CO)[C@@H](C)CC[C@]12C [THORECTANDROL A] | 31 (≈ 80.2 µM) | 30 (≈ 77.6 µM) | 40 (≈ 103 µM) | 40 (≈ 103 µM) | 35 (≈ 90.5 µM) | 40 (≈ 103 µM) | 35 (≈ 90.5 µM) | 32 (≈ 82.8 µM) | 40 (≈ 103 µM) | 35 (≈ 90.5 µM) | 37 (≈ 95.7 µM) | 35 (≈ 90.5 µM) | – | – | – | – | – | – | – | – | –
2 | CC(C)=CC1C/C(=C\CC/C(C)=C/CC/C(C)=C/CCC2=CC(=O)OC2)C(=O)O1 (stereo not given) | – | – | – | – | – | – | – | – | – | – | – | – | inactive | inactive | inactive | inactive | inactive | inactive | inactive | inactive | Activity (MOLT-4 [21]): inactive; Activity (786-0): inactive; Activity (Malme-3M [22]): inactive; Activity (IGROV-1 [23]): inactive
3 | C=C1CCC[C@H]2[C@](C)(CC/C(C)=C/C=C/C3=CC(=O)OC3O)[C@@H](C)CC[C@]12C (stereo not given in full) [PALAUOLIDE] | 7.7 (≈ 20 µM) | 53 (≈ 138 µM) | 14.4 (≈ 37.4 µM) | 37 (≈ 96.2 µM) | 10.1 (≈ 26.3 µM) | > 100 | 51.2 (≈ 133 µM) | 43.5 (≈ 113 µM) | 52.1 (≈ 135 µM) | 30 (≈ 78 µM) | 23.6 (≈ 61.4 µM) | 30 (≈ 78 µM) | – | – | – | – | – | – | – | – | –
4 | C=C1CCC[C@H]2[C@@](CC/C(C)=C/C[C@H]3OC(=O)CC3CO)(COC(C)=O)[C@@H](C)CC[C@]12C (stereo not given in full) [THORECTANDROL B] | > 100 | 35 (≈ 78.4 µM) | 94 (≈ 210 µM) | 30 (≈ 67.2 µM) | 96 (≈ 215 µM) | 30 (≈ 67.2 µM) | 100 (≈ 224 µM) | 19 (≈ 42.5 µM) | 35 (≈ 78.4 µM) | 35 (≈ 78.4 µM) | 23.6 (≈ 52.8 µM) | 70 (≈ 157 µM) | – | – | – | – | – | – | – | – | –
5 | C=C1CCC[C@H]2[C@](C)(CC/C(C)=C/C[C@@H](O)C3=CC(=O)OC3)[C@@H](C)[C@H](O)C[C@]12C | – | – | – | – | – | – | – | – | – | – | – | – | inactive | inactive | inactive | inactive | inactive | inactive | inactive | inactive | Activity (MOLT-4 [21]): inactive; Activity (786-0): inactive; Activity (Malme-3M [22]): inactive; Activity (IGROV-1 [23]): inactive
6 | CC(C)=CC1C/C(=C/CC/C(C)=C/CC/C(C)=C/C[C@@H](O)C2=CC(=O)OC2)C(=O)O1 (stereo not given in full) | – | – | – | – | – | – | – | – | – | – | – | – | inactive | inactive | inactive | inactive | inactive | inactive | inactive | inactive | Activity (MOLT-4 [21]): inactive; Activity (786-0): inactive; Activity (Malme-3M [22]): inactive; Activity (IGROV-1 [23]): inactive
7 | C=C1CCC[C@H]2[C@](C)(CC/C(C)=C/C[C@@H](O)C3=CC(=O)OC3)[C@@H](C)[C@H](OC(C)=O)C[C@]12C [THORECTANDROL C] | – | 30 (≈ 67.5 µM) | – | 30 (≈ 67.5 µM) | – | – | – | – | – | 30 (≈ 67.5 µM) | – | – | – | – | – | – | – | – | – | – | IC50 (MCF7 [6]; mcf7): Not Active; Activity (LOX IMVI [7]): inactive; Activity (OVCAR-3 [12]): inactive
8 | C=C1CCC[C@@H]2[C@@](C)(CC/C(C)=C/C[C@@H](O)C3=CC(=O)OC3O)[C@@H](C)CC[C@@]12C (stereo not given in full) [PALAUOLOL] | 1.5 (≈ 3.73 µM) | 1.4 (≈ 3.48 µM) | 1.8 (≈ 4.47 µM) | 0.5 (≈ 1.24 µM) | 1.3 (≈ 3.23 µM) | 7 (≈ 17.4 µM) | 2.4 (≈ 5.96 µM) | 0.6 (≈ 1.49 µM) | 2.1 (≈ 5.22 µM) | > 100 | 1.1 (≈ 2.73 µM) | 2.2 (≈ 5.46 µM) | – | – | – | – | – | – | – | – | –
